{"source": "patent US20260144793A1", "about": "“METHODS OF TREATING CANCER” (AMGEN INC., priority 2022, published 2026)", "key": {"[1]": {"assay": "Concomitant administration of sotorasib with acid reducing agents", "assay_type": "in vivo", "conditions": "with proton pump inhibitors (e.g., omeprazole) or H2-receptor antagonists (e.g., famotidine)"}, "[2]": {"test_system": "phosphorylation of extracellular signal-regulated kinase (ERK)", "conditions": "preclinical studies; cited from earlier work"}, "[3]": {"assay": "Phase 1b study of sotorasib in combination with RMC-4630: pharmacokinetic analysis", "assay_type": "in vivo, human", "conditions": "sotorasib 960 mg QD + RMC-4630 100, 140 or 200 mg; compared with monotherapy studies", "excerpt": "The primary endpoint was safety/tolerability."}, "[4]": {"test_system": "patients with KRAS G12C-mutated NSCLC, CRC, or other solid tumors", "conditions": "N = 27, all RMC-4630 doses with sotorasib 960 mg QD; TRAEs related to the labelled drug (combination: either drug)", "excerpt": "Note that D1D4 indicates administration of Day 1 and Day 4 of each 7 days.\nDose exploration will begin with treating 3-4 subjects at Dose Level 1. The study dose-limiting toxicity (DLT) period is 21 days. Once all subjects enrolled at a certain dose level and schedule are DLT evaluable, a Dose Level Review Team (DLRT) meeting will be convened. For any dose level (including Dose Level 1), and depending on observed safety data, the following may occur: 1) dose escalation to the next highest dose level or 2) additional enrollment to the current dose level or 3) dose de-escalation to the next lowest dose level. Rules for dose-escalation/de-escalation are derived using a modified Toxicity Probability Interval-2 (mTPI-2) model (Guo et al, 2017) with a target toxicity probability of 0.30 (Table 2)\nThe grading of adverse events will be based on the guidelines provided in the CTCAE version 5.0. […] A subject without a DLT will not be DLT evaluable if the date of decision to end both investigational products is before the completion of the DLT window.\nThe adverse event grading scale to be used for this study will be the CTCAE v5.0. The investigator is responsible for ensuring that all serious adverse events observed by the investigator or reported by the subject that occur after the signing of the informed consent through the safety follow-up visit or 30 days after last day of dosing interval of investigational product(s)/protocol-required therapies, whichever is later, are reported using the Events CRF. The criteria for grade 4 in the CTCAE grading scale differs from the regulatory criteria for serious adverse events. If adverse events correspond to a grade 4 CTCAE toxicity grading scale criteria (e.g., laboratory abnormality reported as grade 4 without manifestation of life-threatening status), it will be left to the investigator's judgment to also report these abnormalities as serious adverse events. For any adverse event that applies to this situation, comprehensive documentation of the event's severity must be recorded in the subject medical records. If the investigator becomes aware of serious adverse events suspected to be related to investigational products after the protocol-required reporting period is complete, then these serious adverse events will be reported within 24 hours following the investigator's awareness of the event using the Events CRF. Since a study endpoint is overall survival, the investigator will also need to collect/report fatal serious adverse events (regardless of causality) within 24 hours following investigator's awareness of the event. […] However, if the investigator becomes aware of serious adverse events suspected to be related to investigational products, then these serious adverse events will be reported within 24 hours following the investigator's awareness of the event. Serious adverse events reported outside of the protocol-required reporting period will be captured within the safety database as clinical trial cases and handled accordingly based on relationship to investigational product. If further safety related data is needed to fulfill any regulatory reporting requirements for a reportable event, then additional information may need to be collected from the subject's records after the subject ends the study.\nThe primary endpoint was safety/tolerability. Secondary endpoints included objective response rate per RECIST 1.1 and pharmacokinetics."}}}
{"smiles": "C=CC(=O)N1CCN(c2nc(=O)n(-c3c(C)ccnc3C(C)C)c3nc(-c4c(O)cccc4F)c(F)cc23)[C@@H](C)C1", "note": "[Sotorasib, 6-fluoro-7-(2-fluoro-6-hydroxyphenyl)-(1M)-1-[4-methyl-2-(propan-2-yl)pyridin-3-yl]-4-[(2S)-2-methyl-4-(prop-2-enoyl)piperazin-1-yl]pyrido[2,3-d]pyrimidin-2 (1H)-one]", "values": [{"measurement": "Sotorasib concentrations on concomitant administration", "setting": "[1]", "value": "decreased sotorasib concentrations"}, {"measurement": "Inhibition of ERK phosphorylation", "setting": "[2]", "value": "inhibited nearly all detectable phosphorylation"}, {"measurement": "Average exposure in the combination", "setting": "[3]", "value": "consistent with distributions observed in monotherapy studies"}, {"measurement": "AST increased, All Grades, %", "setting": "[4]", "value": 4, "unit": "%"}, {"measurement": "AST increased, Grade 3, %", "setting": "[4]", "value": 4, "unit": "%"}, {"measurement": "Ascites, All Grades, %", "setting": "[4]", "value": 4, "unit": "%"}, {"measurement": "Ascites, Grade 3, %", "setting": "[4]", "value": 4, "unit": "%"}, {"measurement": "Colitis, All Grades, %", "setting": "[4]", "value": 4, "unit": "%"}, {"measurement": "Colitis, Grade 3, %", "setting": "[4]", "value": 4, "unit": "%"}, {"measurement": "Diarrhea, All Grades, %", "setting": "[4]", "value": 26, "unit": "%"}, {"measurement": "Diarrhea, Grade 3, %", "setting": "[4]", "value": 7, "unit": "%"}, {"measurement": "Dry mouth, All Grades, %", "setting": "[4]", "value": 11, "unit": "%"}, {"measurement": "Dyspnea, All Grades, %", "setting": "[4]", "value": 4, "unit": "%"}, {"measurement": "Dyspnea, Grade 3, %", "setting": "[4]", "value": 4, "unit": "%"}, {"measurement": "Edema (general, peripheral, periorbital, facial), All Grades, %", "setting": "[4]", "value": 26, "unit": "%"}, {"measurement": "Fatigue, All Grades, %", "setting": "[4]", "value": 11, "unit": "%"}, {"measurement": "Total TRAE, All Grades, %", "setting": "[4]", "value": 56, "unit": "%"}, {"measurement": "Total TRAE, Grade 3, %", "setting": "[4]", "value": 22, "unit": "%"}]}
